# Tests used:
# [1] = system: CASOB (Sicklepod); assay: Postemergence herbicidal evaluation; assay type: in vivo, Cassia obtusifolia
# In short: (§1)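 Visual 0–9 rating versus control (stand, vigor, malformation, size, chlorosis, overall appearance), taken four to five weeks post-spray. Two-week-old seedlings received roughly 0.0156–0.500 kg/ha active in acetone/water (50/50) with 0.5% TWEEN 20 via nozzle at 40 psi.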
# [2] = system: CHEAL (Lambsquarters, Common); assay: Postemergence herbicidal evaluation; assay type: in vivo, Chenopodium album
# In short: as §1
# [3] = system: ECHCG (Barnyardgrass); assay: Postemergence herbicidal evaluation; assay type: in vivo, Echinochloa crus-galli
# In short: as §1
# [4] = system: ORYSAT (Rice, Tebonnet); assay: Postemergence herbicidal evaluation; assay type: in vivo, Oryza sativa, (L.) Tebonnet
# In short: as §1
# [5] = system: GALAP (Galium); assay: Preemergence herbicidal evaluation; assay type: in vivo, Galium aparine; conditions: rated 4-5 weeks after treatment
# In short: (§2)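 In this greenhouse assay, monocot and dicot seeds are planted in soil and treated prior to emergence with an aqueous acetone spray (about 0.0156-0.500 kg/ha). Plants are assessed visually against control on a 0-9 scale after 4-5 weeks.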
# [6] = system: SETVI (Foxtail, Green); assay: Preemergence herbicidal evaluation; assay type: in vivo, Setaria viridis; conditions: rated 4-5 weeks after treatment
# In short: as §2
# [7] = system: GLXMAW (Soybean, Williams); assay: Preemergence herbicidal evaluation; assay type: in vivo, Glycine max, (L.) Merr. cv Williams; conditions: rated 4-5 weeks after treatment
# In short: as §2
# [8] = system: ORYSAT (Rice, Tebonnet); assay: Preemergence herbicidal evaluation; assay type: in vivo, Oryza sativa, (L.) Tebonnet; conditions: rated 4-5 weeks after treatment
# In short: as §2
# [9] = system: TRZAWR (Wheat, Winter, cv Riband); assay: Preemergence herbicidal evaluation; assay type: in vivo, Triticum aestivum; conditions: rated 4-5 weeks after treatment
# In short: as §2
# [10] = system: ZEAMX (Corn, Field); assay: Preemergence herbicidal evaluation; assay type: in vivo, Zea mays; conditions: rated 4-5 weeks after treatment
# In short: as §2
# [11] = system: CYPIR (Rice Flatsedge); assay: Preemergence weed control under flooded paddy conditions; assay type: in vivo, Cyperus iria; conditions: rated 3-4 weeks after treatment
# In short: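 Flooded-pot preemergence screen with silt loam and seeds in the upper 0.5 cm. Dose about 0.0313 to 0.500 kg/ha, delivered into flood water; visual 0-9 score after 3 to 4 weeks.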
# [12] = system: MOOVA (Monochoria); assay: as above; assay type: in vivo, Monochoria vaginalis; conditions: rated 3-4 weeks after treatment
# In short: (§3)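 First, seeds or propagules go into the top 0.5 cm of silt loam; next, water is held 1.5 to 3 cm over the soil; then compound (50/50 acetone/water) is pipetted into it at about 0.0313 to 0.500 kg/ha; finally plants are rated visually 0-9 after three to four weeks.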
# [13] = system: SAGPY (Arrowhead (Pygmaea)); assay: as above; assay type: in vivo, Sagittaria pygmaea; conditions: rated 3-4 weeks after treatment
# In short: as §3
# [14] = system: CYPSE (Flatsedge); assay: Postemergence weed control under flooded paddy conditions; assay type: in vivo, Cyperus serotinus; conditions: postemergence weeds, 3-4 weeks after treatment
# In short: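 Containers holding 3–5 cm weeds and rice at 1.5–2.5 leaves are flooded to 1.5–3 cm above soil. Compound in 50/50 v/v aqueous/acetone is then added directly to the water, about 0.0313–0.500 kg/ha. Plants are kept in the greenhouse and rated 0–9 visually at 3–4 weeks.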
compound,measurement,setting,value
"CCOC(=O)CN1C(=O)C(CCO)S/C1=N/c1cc(-n2c(=O)cc(C(F)(F)F)n(C)c2=O)c(F)cc1Cl (centres unmarked) [Compound 49, Ethyl 2-{{2-chloro-5-[3,6-dihydro-3-methyl-2,6-dioxo-4-(trifluoromethyl)-1(2H)-pyrimidinyl]-4-fluorophenyl}imino}-5-(hydroxyethyl)-4-oxo-3-thiazolidineacetate]",Postemergence herbicidal rating CASOB,[1]; Rate 0.0313 kg/ha,3.0
same,Postemergence herbicidal rating CASOB,[1]; Rate 0.0625 kg/ha,3.0
same,Postemergence herbicidal rating CASOB,[1]; rate 0.0156 kg/ha,2.0
same,Postemergence herbicidal rating CHEAL,[2]; Rate 0.0313 kg/ha,9.0
same,Postemergence herbicidal rating CHEAL,[2]; Rate 0.0625 kg/ha,9.0
same,Postemergence herbicidal rating CHEAL,[2]; rate 0.0156 kg/ha,9.0
same,Postemergence herbicidal rating ECHCG,[3]; Rate 0.0313 kg/ha,0.0
same,Postemergence herbicidal rating ECHCG,[3]; Rate 0.0625 kg/ha,0.0
same,Postemergence herbicidal rating ECHCG,[3]; rate 0.0156 kg/ha,0.0
same,Postemergence herbicidal rating ORYSAT,[4]; Rate 0.0313 kg/ha,2.5
same,Postemergence herbicidal rating ORYSAT,[4]; Rate 0.0625 kg/ha,3.0
same,Postemergence herbicidal rating ORYSAT,[4]; rate 0.0156 kg/ha,1.0
same,Preemergence herbicidal rating GALAP,[5]; rate 0.0156 kg/ha,0.0
same,Preemergence herbicidal rating GALAP,[5]; rate 0.0313 kg/ha,0.0
same,Preemergence herbicidal rating GALAP,[5]; rate 0.0625 kg/ha,7.0
same,Preemergence herbicidal rating GALAP,[5]; rate 0.1250 kg/ha,7.0
same,Preemergence herbicidal rating GALAP,[5]; rate 0.2500 kg/ha,9.0
same,Preemergence herbicidal rating SETVI,[6]; rate 0.0156 kg/ha,0.0
same,Preemergence herbicidal rating SETVI,[6]; rate 0.0313 kg/ha,4.0
same,Preemergence herbicidal rating SETVI,[6]; rate 0.0625 kg/ha,5.0
same,Preemergence herbicidal rating SETVI,[6]; rate 0.2500 kg/ha,5.0
same,Preemergence herbicidal rating GLXMAW,[7]; rate 0.0156 kg/ha,0.0
same,Preemergence herbicidal rating GLXMAW,[7]; rate 0.0313 kg/ha,0.0
same,Preemergence herbicidal rating GLXMAW,[7]; rate 0.0625 kg/ha,2.0
same,Preemergence herbicidal rating GLXMAW,[7]; rate 0.1250 kg/ha,2.0
same,Preemergence herbicidal rating GLXMAW,[7]; rate 0.2500 kg/ha,2.0
same,Preemergence herbicidal rating ORYSAT,[8]; rate 0.0156 kg/ha,0.0
same,Preemergence herbicidal rating ORYSAT,[8]; rate 0.0313 kg/ha,0.0
same,Preemergence herbicidal rating ORYSAT,[8]; rate 0.0625 kg/ha,0.0
same,Preemergence herbicidal rating ORYSAT,[8]; rate 0.1250 kg/ha,5.0
same,Preemergence herbicidal rating ORYSAT,[8]; rate 0.2500 kg/ha,5.0
same,Preemergence herbicidal rating TRZAWR,[9]; rate 0.0156 kg/ha,0.0
same,Preemergence herbicidal rating TRZAWR,[9]; rate 0.0313 kg/ha,0.0
same,Preemergence herbicidal rating TRZAWR,[9]; rate 0.0625 kg/ha,0.0
same,Preemergence herbicidal rating TRZAWR,[9]; rate 0.1250 kg/ha,0.0
same,Preemergence herbicidal rating TRZAWR,[9]; rate 0.2500 kg/ha,2.0
same,Preemergence herbicidal rating ZEAMX,[10]; rate 0.0156 kg/ha,0.0
same,Preemergence herbicidal rating ZEAMX,[10]; rate 0.0313 kg/ha,0.0
same,Preemergence herbicidal rating ZEAMX,[10]; rate 0.0625 kg/ha,0.0
same,Preemergence herbicidal rating ZEAMX,[10]; rate 0.1250 kg/ha,3.0
same,Preemergence herbicidal rating ZEAMX,[10]; rate 0.2500 kg/ha,3.0
same,Herbicidal rating CYPIR,[11]; 0.0313 kg/ha,0.0
same,Herbicidal rating CYPIR,[11]; 0.0625 kg/ha,0.0
same,Herbicidal rating CYPIR,[11]; 0.1250 kg/ha,2.0
same,Herbicidal rating CYPIR,[11]; 0.2500 kg/ha,7.0
same,Herbicidal rating MOOVA,[12]; 0.0313 kg/ha,9.0
same,Herbicidal rating MOOVA,[12]; 0.0625 kg/ha,9.0
same,Herbicidal rating MOOVA,[12]; 0.1250 kg/ha,9.0
same,Herbicidal rating MOOVA,[12]; 0.2500 kg/ha,9.0
same,Herbicidal rating SAGPY,[13]; 0.0313 kg/ha,2.0
same,Herbicidal rating SAGPY,[13]; 0.0625 kg/ha,4.0
same,Herbicidal rating SAGPY,[13]; 0.1250 kg/ha,6.0
same,Herbicidal rating SAGPY,[13]; 0.2500 kg/ha,7.0
same,Herbicidal rating CYPSE,[14]; rate 0.0313 kg/ha,2.0
same,Herbicidal rating CYPSE,[14]; rate 0.0625 kg/ha,3.0
same,Herbicidal rating CYPSE,[14]; rate 0.2500 kg/ha,4.0
"C[C@@H](C(=O)O)N1C(=O)CS/C1=N/c1cc(-n2c(=O)cc(C(F)(F)F)n(C)c2=O)c(F)cc1Cl [Compound 51, 2-{{2-Chloro-5-[3,6-dihydro-3-methyl-2,6-dioxo-4-(trifluoromethyl)-1(2H)-pyrimidinyl]-4-fluoro-phenyl}imino}-α-methyl-4-oxo-3-thiazolidineacetic acid, L-]",Postemergence herbicidal rating CASOB,[1]; Rate 0.0158 kg/ha,2.0
same,Postemergence herbicidal rating CASOB,[1]; Rate 0.0315 kg/ha,2.0
same,Postemergence herbicidal rating CASOB,[1]; Rate 0.0630 kg/ha,7.0
same,Postemergence herbicidal rating CHEAL,[2]; Rate 0.0158 kg/ha,9.0
same,Postemergence herbicidal rating CHEAL,[2]; Rate 0.0315 kg/ha,9.0
same,Postemergence herbicidal rating CHEAL,[2]; Rate 0.0630 kg/ha,9.0
same,Postemergence herbicidal rating ECHCG,[3]; Rate 0.0158 kg/ha,4.0
same,Postemergence herbicidal rating ECHCG,[3]; Rate 0.0315 kg/ha,5.0
same,Postemergence herbicidal rating ECHCG,[3]; Rate 0.0630 kg/ha,9.0
same,Postemergence herbicidal rating ORYSAT,[4]; Rate 0.0158 kg/ha,2.0
same,Postemergence herbicidal rating ORYSAT,[4]; Rate 0.0315 kg/ha,3.5
same,Postemergence herbicidal rating ORYSAT,[4]; Rate 0.0630 kg/ha,4.0
same,Preemergence herbicidal rating GALAP,[5]; rate 0.0156 kg/ha,0.0
same,Preemergence herbicidal rating GALAP,[5]; rate 0.0313 kg/ha,0.0
same,Preemergence herbicidal rating GALAP,[5]; rate 0.0625 kg/ha,5.0
same,Preemergence herbicidal rating GALAP,[5]; rate 0.1250 kg/ha,7.0
same,Preemergence herbicidal rating GALAP,[5]; rate 0.2500 kg/ha,9.0
same,Preemergence herbicidal rating SETVI,[6]; rate 0.0156 kg/ha,1.0
same,Preemergence herbicidal rating SETVI,[6]; rate 0.0313 kg/ha,0.0
same,Preemergence herbicidal rating SETVI,[6]; rate 0.0625 kg/ha,3.0
same,Preemergence herbicidal rating SETVI,[6]; rate 0.1250 kg/ha,6.0
same,Preemergence herbicidal rating SETVI,[6]; rate 0.2500 kg/ha,9.0
same,Preemergence herbicidal rating GLXMAW,[7]; rate 0.0156 kg/ha,0.0
same,Preemergence herbicidal rating GLXMAW,[7]; rate 0.0313 kg/ha,0.0
same,Preemergence herbicidal rating GLXMAW,[7]; rate 0.0625 kg/ha,1.0
same,Preemergence herbicidal rating GLXMAW,[7]; rate 0.1250 kg/ha,1.0
same,Preemergence herbicidal rating GLXMAW,[7]; rate 0.2500 kg/ha,7.0
same,Preemergence herbicidal rating ORYSAT,[8]; rate 0.0156 kg/ha,0.0
same,Preemergence herbicidal rating ORYSAT,[8]; rate 0.0313 kg/ha,1.0
same,Preemergence herbicidal rating ORYSAT,[8]; rate 0.0625 kg/ha,1.0
same,Preemergence herbicidal rating ORYSAT,[8]; rate 0.1250 kg/ha,1.0
same,Preemergence herbicidal rating ORYSAT,[8]; rate 0.2500 kg/ha,7.0
same,Preemergence herbicidal rating TRZAWR,[9]; rate 0.0156 kg/ha,0.0
same,Preemergence herbicidal rating TRZAWR,[9]; rate 0.0313 kg/ha,0.0
same,Preemergence herbicidal rating TRZAWR,[9]; rate 0.0625 kg/ha,0.0
same,Preemergence herbicidal rating TRZAWR,[9]; rate 0.1250 kg/ha,2.0
same,Preemergence herbicidal rating TRZAWR,[9]; rate 0.2500 kg/ha,6.0
same,Preemergence herbicidal rating ZEAMX,[10]; rate 0.0156 kg/ha,1.0
same,Preemergence herbicidal rating ZEAMX,[10]; rate 0.0313 kg/ha,1.0
same,Preemergence herbicidal rating ZEAMX,[10]; rate 0.0625 kg/ha,1.0
same,Preemergence herbicidal rating ZEAMX,[10]; rate 0.1250 kg/ha,2.0
same,Preemergence herbicidal rating ZEAMX,[10]; rate 0.2500 kg/ha,6.0
same,Herbicidal rating CYPIR,[11]; 0.0625 kg/ha,2.0
same,Herbicidal rating CYPIR,[11]; 0.1250 kg/ha,3.0
same,Herbicidal rating CYPIR,[11]; 0.2500 kg/ha,6.0
same,Herbicidal rating MOOVA,[12]; 0.0625 kg/ha,3.0
same,Herbicidal rating MOOVA,[12]; 0.1250 kg/ha,4.0
same,Herbicidal rating MOOVA,[12]; 0.2500 kg/ha,4.0
same,Herbicidal rating SAGPY,[13]; 0.0625 kg/ha,0.0
same,Herbicidal rating SAGPY,[13]; 0.1250 kg/ha,0.0
same,Herbicidal rating SAGPY,[13]; 0.2500 kg/ha,0.0
same,Herbicidal rating CYPSE,[14]; rate 0.0625 kg/ha,0.0
same,Herbicidal rating CYPSE,[14]; rate 0.1250 kg/ha,0.0
same,Herbicidal rating CYPSE,[14]; rate 0.2500 kg/ha,0.0

# Reference: patent US20020137929A1, “1 - (3-heterocyclylphenyl) isothiourea, -isourea, -guanidine and -amidine herbicidal agents” (Intellectual Property Department, BASF Aktiengesellschaft, priority 1998, published 2002)
